From patent publication US6818649B2, “Chromenylmethyl pyrimidinediamines as antibacterial agents” (Basilea Pharmaceutica AG, priority 2000, dated 2004)
Converted amounts (≈) assume the structure as drawn.

How the values were obtained:
[1] = test system: Streptococcus pneumoniae 1/1, Trimethoprim- and Penicillin-resistant, Serotype 6; clinical isolate; assay: MIC against Streptococcus pneumoniae 1/1; type: cell-based; settings: read-out: MIC Spn1/1
Method: (§1) The following Table contains inhibitory concentrations determined in the above test for representative members of the class of compound defined by formula I. The following microorganisms were tested: […]
Col. 1: MIC Spn1/1; μg/ml (Streptococcus pneumoniae 1/1, Trimethoprim- and Penicillin-resistant, Serotype 6; clinical isolate, stored at −80° C.)
Lit.: H. Locher et al., Can. J. Infect. Dis.6: Suppl. C, p 469C.

[2] = target: purified DHFR of the strain 157/4696 (highly trimethoprim-resistant; clinical isolate) of Staphylococcus aureus (Staphylococcus aureus, UniProt P13955); assay: biochemical
Text: The inhibition of the enzyme was taken as a measurement for the antibacterial activity.

[3] = test system: Staphylococcus aureus 101, MRSA and Trimethoprim-resistant; clinical isolate; assay: MIC against Staphylococcus aureus 101; type: cell-based; settings: read-out: MIC Sa101
Method: as §1
Col. 2: MIC Sa101; μg/ml (Staphylococcus aureus 101, MRSA^*)— and Trimethoprim-resistant; clinical isolate, stored at −80° C.)
^*) MRSA=Methicillin Resistant Staphylococcus Aureus

[4] = target: T1, purified DHFR of strain Sp1/1 of Streptococcus pneumoniae (Streptococcus pneumoniae, UniProt Q54801); settings: read-out: DHFR Spn1/1 (IC50); purified DHFR of S. pneumoniae strain Spn1/1; IC50 determined graphically
T1 sequence (Q54801 1-168): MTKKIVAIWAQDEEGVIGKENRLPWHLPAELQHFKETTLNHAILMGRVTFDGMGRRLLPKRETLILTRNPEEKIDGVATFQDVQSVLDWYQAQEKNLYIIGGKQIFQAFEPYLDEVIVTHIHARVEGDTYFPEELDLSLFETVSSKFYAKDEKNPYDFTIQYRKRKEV
Text: 3: DHFR Spn1/1; μM—the IC50-values in μM against the purified DHFR of the above strain Sp1/1 of Streptococcus pneumoniae.

For `COc1cc(Cc2cnc(N)nc2N)cc2c1OC1(C=C2)CCCCC1` [Example 31, 5-[(8-Methoxyspiro[2H-1-benzopyran-2,1′-cyclohexan]-6-yl)methyl]-2,4-pyrimidine-diamine], the melting point was 181 to 182 °C.
With `COc1cc(Cc2cnc(N)nc2N)cc2c1OC(C)(C)C=C2CO` [Example 5, [6-(2,4-Diamino-pyrimidin-5-ylmethyl)-8-methoxy-2,2-dimethyl-2H-chromen-4-yl]-methanol] the melting point was 239 to 240 °C.
Compound `CCOc1cc(Cc2cnc(N)nc2N)cc2c1OC(C)(C)C=C2CO` [Example 13, [6-(2,4-Diamino-pyrimidin-5-ylmethyl)-8-ethoxy-2,2-dimethyl-2H-chromen-4-yl]-methanol] has a melting point of 187 to 189 °C.
`CCOc1cc(Cc2cnc(N)nc2N)cc2c1OC(C)(C)C=C2c1ccc(OC)c(OC)c1` [Example 48, 5-[4-(3,4-Dimethoxy-phenyl)-8-ethoxy-2,2-dimethyl-2H-chromen-6-ylmethyl]-pyrimidine-2,4-diamine] showed a melting point of 191 to 192 °C.
Work on `CCOc1cc(Cc2cnc(N)nc2N)cc2c1OC(C)(C)C=C2[Si](C)(C)C` yielded a melting point of 189 to 190 °C.
With `CCCC1=CC(C)(C)Oc2c(OCC)cc(Cc3cnc(N)nc3N)cc21` [Example 10, 5-(8-Ethoxy-2,2-dimethyl-4-propyl-2H-chromen-6-ylmethyl) -pyrimidine-2,4-diamine] the MIC [1] was 2 µg/mL (≈ 5.43 µM), the melting point was 208 to 209 °C and the IC50 [2] was 1.1 µM. It also gave an MIC [3] of 4 µg/mL (≈ 10.9 µM) and an IC50 [4] of 0.015 µM.
In the case of `COc1cc(Cc2cnc(N)nc2N)cc2c1OC(C)(C)C=C2c1cccs1` [Example 51, 5-(8-Methoxy-2,2-dimethyl-4-thiophen-2-yl-2H-chromen-6-ylmethyl)-pyrimidine-2,4-diamine], the melting point is reported as > 260 °C.
In the case of `COc1cc(Cc2cnc(N)nc2N)cc2c1OC(C)(C)C=C2c1ccccc1` [Example 42, 5-(8-Methoxy-2,2-dimethyl-4-phenyl-2H-chromen-6-ylmethyl) -pyrimidine-2,4-diamine], the melting point is reported as > 260 °C.
With `COc1cc(Cc2cnc(N)nc2N)cc2c1OC(C)(C)C=C2c1ccc(F)cc1` [Example 32, 5-[4-(4-Fluoro-phenyl)-8-methoxy-2,2-dimethyl-2H-chromen-6-ylmethyl]-pyrimidine-2,4-diamine] the MIC [1] was > 8 µg/mL, the IC50 [2] was 0.08 µM and the MIC [3] was > 8 µg/mL. It also gave an IC50 [4] of 0.19 µM.
For `COc1cc(Cc2cnc(N)nc2N)cc(OC)c1OC` [Trimethoprim, reference compound], the MIC [1] was > 32 µg/mL and the MIC [3] was 32 µg/mL (≈ 110 µM).
With `COc1cc(Cc2cnc(N)nc2N)cc2c1OC(C)(C)C=C2C#CCO` [Example 46, 3-[6-(2,4-Diamino-pyrimidin-5-ylmethyl)-8-methoxy-2,2-dimethyl-2H-chromen-4-yl]-prop-2-yn-1-ol] the melting point was 236 to 237 °C.
In the case of `CCOc1cc(Cc2cnc(N)nc2N)cc(OCC)c1-n1cccc1` [Epiroprim, reference compound], the MIC [1] is reported as 4 µg/mL (≈ 11.3 µM), the IC50 [2] is reported as 2 µM and the MIC [3] is reported as 16 µg/mL (≈ 45.3 µM).
`C=C(C)C1=CC(C)(C)Oc2c(OCC)cc(Cc3cnc(N)nc3N)cc21` [Example 45, 5-(8-Ethoxy-4-isopropenyl-2,2-dimethyl-2H-chromen-6-ylmethyl)-pyrimidine-2,4-diamine] showed a melting point of 188 to 189 °C.
Compound `CCOc1cc(Cc2cnc(N)nc2N)cc2c1OC(C)(C)C=C2` [Example 19, 5-(8-Ethoxy-2,2-dimethyl-2H-chromen-6-ylmethyl)-pyrimidine-2,4-diamine] has a melting point of 184 to 186 °C.
Compound `CCOc1cc(Cc2cnc(N)nc2N)cc2c1OC(C)(C)C=C2C(C)(C)O` [Example 43, 2-[6-(2,4-Diamino-pyrimidin-5-ylmethyl)-8-ethoxy-2,2-dimethyl-2H-chromen-4-yl]-propan-2-ol] has a melting point of 209 to 210 °C.
With `CCOc1cc(Cc2cnc(N)nc2N)cc2c1OC(C)(C)C=C2c1cccc(F)c1` [Example 34, 5-[8-Ethoxy-4-(3-fluoro-phenyl)-2,2-dimethyl-2H-chromen-6-ylmethyl]-pyrimidine-2,4-diamine] the melting point was 185 to 186 °C.
For `CCOc1cc(Cc2cnc(N)nc2N)cc2c1OC(C)(C)C=C2C(C)(O)CC` (centres unmarked) [Example 44, 2-[6-(2,4-Diamino-pyrimidin-5-ylmethyl)-8-ethoxy-2,2-dimethyl-2H-chromen-4-yl]-butan-2-ol], the melting point was 127 to 128 °C.
Compound `CCOc1cc(Cc2cnc(N)nc2N)cc2c1OC(C)(C)C=C2Br` [Example 7, 5-(4-Bromo-8-ethoxy-2,2-dimethyl-2H-chromen-6-ylmethyl)-pyrimidine-2,4-diamine] has an MIC [1] of 0.5 µg/mL (≈ 1.23 µM), an IC50 [2] of 0.11 µM and an MIC [3] of 0.5 µg/mL (≈ 1.23 µM). For the same compound, the IC50 [4] was 0.00033 µM.
`COc1cc(Cc2cnc(N)nc2N)cc2c1OC(C)(C)C=C2Br` [Example 2, 5-(4-Bromo-8-methoxy-2,2-dimethyl-2H-chromen-6-ylmethyl) -pyrimidine-2,4-diamine] showed an MIC [1] of 4 µg/mL (≈ 10.2 µM), an IC50 [2] of 0.15 µM and an MIC [3] of 1 µg/mL (≈ 2.56 µM). It also gave an IC50 [4] of 0.052 µM.
`CCOc1cc(Cc2cnc(N)nc2N)cc2c1OC(C)(C)C=C2c1ccncc1` [Example 47, 5-(8-Ethoxy-2,2-dimethyl-4-pyridin-4-yl-2H-chromen-6-ylmethyl)-pyrimidine-2,4-diamine] showed a melting point of 223 to 226 °C.
In the case of `CCOc1cc(Cc2cnc(N)nc2N)cc2c1OC(C)(C)C=C2c1cccs1` [Example 36, 5-(8-Ethoxy-2,2-dimethyl-4-thiophen-2-yl-2H-chromen-6-ylmethyl)-pyrimidine-2,4-diamine], the melting point is reported as 213 to 214 °C (dec.).
In the case of `CCOc1cc(Cc2cnc(N)nc2N)cc2c1OC(C)(C)C=C2c1cccc(NC(C)=O)c1` [Example 49, N-{3-[6-(2,4-Diamino-pyrimidin-5-ylmethyl)-8-ethoxy-2,2-dimethyl-2H-chromen-4-yl]-phenyl}-acetamide], the melting point is reported as 145 °C (dec.).
With `CCOc1cc(Cc2cnc(N)nc2N)cc2c1OC(C)(C)C=C2c1cccc(N)c1` [Example 56, 5-[4-(3-Amino-phenyl)-8-ethoxy-2,2-dimethyl-2H-chromen-6-ylmethyl]-pyrimidine-2,4-diamine] the melting point was 196 to 198 °C (dec.).
For `CCOc1cc(Cc2cnc(N)nc2N)cc2c1OC(C)(C)C=C2c1ccc(F)cc1` [Example 35, 5-[8-Ethoxy-4-(4-fluoro-phenyl)-2,2-dimethyl-2H-chromen-6-ylmethyl]-pyrimidine-2,4-diamine], the melting point was 204 to 205 °C (dec.).
Work on `CCOc1cc(Cc2cnc(N)nc2N)cc2c1OC(C)(C)C=C2C#CC(C)O` (centres unmarked) [Example 15, 4-[6-(2,4-Diamino-pyrimidin-5-ylmethyl)-8-ethoxy-2,2-dimethyl-2H-chromen-4-yl]-but-3-yn-2-ol] yielded a melting point of 218 to 219 °C.
With `CCOc1ccc(C2=CC(C)(C)Oc3c(OCC)cc(Cc4cnc(N)nc4N)cc32)cc1` [Example 52, 5-[8-Ethoxy-4-(4-ethoxy-phenyl)-2,2-dimethyl-2H-chromen-6-ylmethyl]-pyrimidine-2,4-diamine] the melting point was 186 to 188 °C.
With `CCOc1cc(Cc2cnc(N)nc2N)cc2c1OC(C)(C)C=C2c1ccsc1` [Example 37, 5-(8-Ethoxy-2,2-dimethyl-4-thiophen-3-yl-2H-chromen-6-ylmethyl)-pyrimidine-2,4-diamine] the melting point was 217 °C (dec.).
`COc1cc(Cc2cnc(N)nc2N)cc2c1OC(C)(C)C=C2c1cccc([N+](=O)[O-])c1` [Example 53, 5-[8-Methoxy-2,2-dimethyl-4-(3-nitro-phenyl)-2H-chromen-6-ylmethyl]-pyrimidine-2,4-diamine] showed a melting point of 253 to 254 °C.
In the case of `COc1cc(Cc2cnc(N)nc2N)cc2c1OC(C)(C)C=C2c1cccc(F)c1` [Example 33, 5-[4-(3-Fluoro-phenyl)-8-methoxy-2,2-dimethyl-2H-chromen-6-ylmethyl]-pyrimidine-2,4-diamine], the melting point is reported as 267 °C (dec.).
In the case of `CCOc1cc(Cc2cnc(N)nc2N)cc2c1OC(C)(C)C=C2Cl` [Example 59, 5-(4-Chloro-8-ethoxy-2,2-dimethyl-2H-chromen-6-ylmethyl)-pyrimidine-2,4-diamine], the melting point is reported as 197 to 199 °C.
For `CCOc1cc(Cc2cnc(N)nc2N)cc2c1OC(C)(C)C=C2c1cccnc1` [Example 50, 5-(8-Ethoxy-2,2-dimethyl-4-pyridin-3-yl-2H-chromen-6-ylmethyl) -pyrimidine-2,4-diamine], the melting point was 145 °C (dec.).
For `CCC1=CC(C)(C)Oc2c(OC)cc(Cc3cnc(N)nc3N)cc21` [Example 3, 5-(4-Ethyl-8-methoxy-2,2-dimethyl-2H-chromen-6-ylmethyl)-pyrimidine-2,4-diamine], the melting point was 256 to 257 °C.
With `COc1cc(Cc2cnc(N)nc2N)cc2c1OC(C)(C)C=C2SC` [Example 4, 5-(8-Methoxy-2,2-dimethyl-4-methylsulfanyl-2H-chromen-6-ylmethyl)-pyrimidine-2,4-diamine] the MIC [1] was 4 µg/mL (≈ 11.2 µM), the IC50 [2] was 0.088 µM and the MIC [3] was 2 µg/mL (≈ 5.58 µM). It also gave an IC50 [4] of 0.078 µM.
`COc1cc(Cc2cnc(N)nc2N)cc2c1OC1(C=C2Br)CCOCC1` [Example 21, 5-[(4-Bromo-2′,3′,5′,6′-tetrahydro-8-methoxyspiro[2H-1-benzopyran-2,4′-[4H]pyran]-6-yl)-methyl]-2,4-pyrimidinediamine] gave an MIC [1] of 4 µg/mL (≈ 9.23 µM), an IC50 [2] of 0.15 µM and an MIC [3] of 1 µg/mL (≈ 2.31 µM). For the same compound, the IC50 [4] was 0.052 µM.
